From patent US10106530B2, “Pyrazolyl substituted tetrahydropyranylsulfones” (GRÜNENTHAL GMBH, priority 2015, dated 2018)

Biological target: T1, Human CaV2.2 channels (Homo sapiens, UniProt Q00975)
T1 construct: expressed in transfected cells; also stably expressing Kir2.3)
Experiment: Fluorescence assay for CaV2.2 channels using potassium depolarization to induce channel opening (FLIPR, Fluo 4)
Assay type: cell-based
Conditions: 30 mM KCl assay buffer (inactivated channel state), HEK293 cells; for inhibition at 3 µM: HEK293, 3 μM test compound, read-out: Activity Category: %-Inhib (CaV2.2) @3 μM @30 mM KCl; for Activity Category: %-Inhib (CaV2.2) @3 μM @30 mM KCl: 3 μM test compound
Excerpt: In the process, the Ca^2+ influx is quantified in the FLIPR assay with the aid of a Ca^2+-sensitive dye (type Fluo-4, Molecular Probes Europe BV, Leiden, the Netherlands) in a fluorescent imaging plate reader (FLIPR 3, Molecular Devices, Sunnyvale, USA), as described hereinafter.
[drawing 69] 2. Assay Descriptions and Biological Data: 2.1 Fluorescence Assay for CaV2.2 Channels Using Potassium Depolarization to Induce Channel Opening
Human CaV2.2 channels were stably expressed in HEK293 cells together with alpha2-delta and beta subunits of voltage gated calcium channels. In addition, an inwardly rectifying potassium channel (Kir2.3) was stably expressed in these cells to augment control of the cell membrane potential by the concentration of extracellular potassium ions. Raise of the extracellular potassium concentration leads to depolarization of the membrane potential and thus regulates the voltage dependent state of CaV2.2 channels. For preparation, cells were seeded in black poly-D-lysine coated 96-well plates (Becton Dickinson, Biocoat 4640) in 100 μL medium [500 mL DMEM/F-12 plus Glutamax (Invitrogen 31331-093) plus 5.5 mL MEM NEAA 100× (Invitrogen 11140-035) plus 50 mL FBS decomplemented (Invitrogen 10270-106) plus 200 μg/mL Geneticin (Invitrogen 10131-027) plus 50 μg/mL Hygromycin B (Invitrogen 10687-010) plus 2 μg/mL Blasticidin (anti-b15b Invivo-Gen) plus 0.2 μg/mL Puromycin (A 11138-03)] at a cell density of 30.000 cells per well. Plates were incubated at 37° C. (5% CO2) for 20 to 23 h. On the day of experiment medium was discarded and cells were loaded with Fluo 4 by addition of 100 μL of basic assay buffer (10 mM HEPES, 1 mM KCl, 149 mM NaCl, 0.8 mM CaCl2, 1.7 mM MgCl2, 10 mM Glucose, 0.1% BSA. pH 7.4) containing 2 μM Fluo 4 (Molecular Probes; F-14201), 0.01% pluronic acid (Molecular Probes; P-6866) and 2.5 mM probenecid (Molecular Probes; P36400). Cells were incubated in the dark at 25° C. for 60 min. Then dye containing buffer was discarded and 100 μL basic (1 mM KCl) or alternative (30 mM KCl) assay buffer was added. The alternative assay buffer contained altered concentrations of KCl (30 mM) and NaCl (120 mM) and was used in order to promote the inactivated channel state. After that 25 μL of basic or alternative assay buffer with or without test compound were added and cells were incubated again in the dark at 25° C. for 15 min. Fluorescence intensity was measured on a FLIPR 3 instrument (Molecular Devices Corp., Sunnyvale, Calif.) with excitation at 480 nm and emission at 535 nm. After continuously reading fluorescence for 30 sec, 50 μL of basic assay buffer containing 210 mM KCl(NaCl omitted) were added for depolarization. Peak fluorescent signal intensity was determined and the amplitude of the peak signal, normalized to base line, was used to measure channel inhibition by test compounds.

T1 sequence (Q00975 whole entry): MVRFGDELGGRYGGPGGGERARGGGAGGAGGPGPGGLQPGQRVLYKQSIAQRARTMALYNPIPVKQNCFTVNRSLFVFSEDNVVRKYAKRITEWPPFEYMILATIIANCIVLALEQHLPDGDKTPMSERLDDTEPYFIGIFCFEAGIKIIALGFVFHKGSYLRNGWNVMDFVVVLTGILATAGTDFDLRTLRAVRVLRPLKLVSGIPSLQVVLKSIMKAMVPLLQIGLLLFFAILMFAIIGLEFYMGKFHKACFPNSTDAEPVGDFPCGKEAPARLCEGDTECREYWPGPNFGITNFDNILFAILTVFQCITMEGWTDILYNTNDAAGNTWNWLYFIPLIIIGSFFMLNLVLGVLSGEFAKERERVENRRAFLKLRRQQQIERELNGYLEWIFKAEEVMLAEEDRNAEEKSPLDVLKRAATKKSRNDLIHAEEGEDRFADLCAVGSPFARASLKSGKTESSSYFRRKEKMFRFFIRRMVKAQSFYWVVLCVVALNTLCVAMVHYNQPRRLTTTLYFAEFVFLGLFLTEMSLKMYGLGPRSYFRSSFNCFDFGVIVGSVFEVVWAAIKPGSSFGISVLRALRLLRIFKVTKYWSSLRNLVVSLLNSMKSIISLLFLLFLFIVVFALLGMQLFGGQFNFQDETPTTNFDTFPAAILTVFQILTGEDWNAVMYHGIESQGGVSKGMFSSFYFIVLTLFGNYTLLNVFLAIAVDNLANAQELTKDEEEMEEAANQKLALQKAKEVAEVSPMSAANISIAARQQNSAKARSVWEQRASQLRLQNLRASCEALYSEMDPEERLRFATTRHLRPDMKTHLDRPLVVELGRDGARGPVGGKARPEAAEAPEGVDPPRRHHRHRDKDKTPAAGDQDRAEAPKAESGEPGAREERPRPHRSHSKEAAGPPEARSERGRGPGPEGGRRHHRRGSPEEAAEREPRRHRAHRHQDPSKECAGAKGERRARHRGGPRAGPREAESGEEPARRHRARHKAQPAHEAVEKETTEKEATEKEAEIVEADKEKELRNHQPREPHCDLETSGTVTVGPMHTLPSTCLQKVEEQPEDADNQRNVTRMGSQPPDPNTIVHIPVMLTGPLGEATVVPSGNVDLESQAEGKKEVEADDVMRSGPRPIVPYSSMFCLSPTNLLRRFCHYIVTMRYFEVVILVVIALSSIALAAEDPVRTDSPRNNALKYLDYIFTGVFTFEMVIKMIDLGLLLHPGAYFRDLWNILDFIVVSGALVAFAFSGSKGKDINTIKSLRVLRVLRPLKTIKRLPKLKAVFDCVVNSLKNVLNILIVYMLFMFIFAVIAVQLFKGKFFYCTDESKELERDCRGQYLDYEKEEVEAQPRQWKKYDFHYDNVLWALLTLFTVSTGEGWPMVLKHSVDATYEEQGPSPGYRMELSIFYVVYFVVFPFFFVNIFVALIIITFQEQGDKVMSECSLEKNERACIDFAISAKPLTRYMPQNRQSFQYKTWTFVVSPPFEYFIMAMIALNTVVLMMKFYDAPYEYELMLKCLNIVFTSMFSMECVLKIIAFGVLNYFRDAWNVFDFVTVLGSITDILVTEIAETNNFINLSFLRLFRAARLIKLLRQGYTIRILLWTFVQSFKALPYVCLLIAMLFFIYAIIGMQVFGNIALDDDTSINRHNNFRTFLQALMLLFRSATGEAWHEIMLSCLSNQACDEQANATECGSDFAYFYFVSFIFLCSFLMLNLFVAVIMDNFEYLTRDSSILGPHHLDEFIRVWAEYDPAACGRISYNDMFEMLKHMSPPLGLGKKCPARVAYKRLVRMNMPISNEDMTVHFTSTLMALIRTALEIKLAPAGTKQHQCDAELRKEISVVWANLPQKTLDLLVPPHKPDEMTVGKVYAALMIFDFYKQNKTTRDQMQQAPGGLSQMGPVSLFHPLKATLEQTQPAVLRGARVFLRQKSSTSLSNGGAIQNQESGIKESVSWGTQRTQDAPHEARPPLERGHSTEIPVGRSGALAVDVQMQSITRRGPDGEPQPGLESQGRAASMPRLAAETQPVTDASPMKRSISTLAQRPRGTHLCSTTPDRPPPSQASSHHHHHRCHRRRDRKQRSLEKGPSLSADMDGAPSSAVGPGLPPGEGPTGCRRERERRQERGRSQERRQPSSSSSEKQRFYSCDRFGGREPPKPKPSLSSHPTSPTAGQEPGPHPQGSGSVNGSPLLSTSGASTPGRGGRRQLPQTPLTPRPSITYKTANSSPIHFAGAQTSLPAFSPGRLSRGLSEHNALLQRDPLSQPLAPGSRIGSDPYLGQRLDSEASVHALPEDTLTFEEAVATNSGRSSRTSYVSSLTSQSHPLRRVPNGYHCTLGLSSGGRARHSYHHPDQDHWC

SMILES	inhibition at 3 µM [%]	further results
CC(C)(C(N)=O)c1cc(C2CC(C)(S(=O)(=O)c3cccc(C(F)(F)F)c3)CCO2)[nH]n1 (stereo not drawn) [Example 30 cis-EN2, 2-Methyl-2-[5-[4-methyl-4-[[3-(trifluoromethyl)phenyl]sulfonyl]-tetrahydro-pyran-2-yl]-1H-pyrazol-3-yl]-propionamide]	40 to 75	–
CC(C)(C#N)c1cc(C2CC(C)(S(=O)(=O)c3cccc(C(F)(F)F)c3)CCO2)[nH]n1 (stereo not drawn) [Example 31 cis-EN1, 2-Methyl-2-[5-[4-methyl-4-[[3-(trifluoromethyl)phenyl]sulfonyl]-tetrahydro-pyran-2-yl]-1H-pyrazol-3-yl]-propionitrile]	> 95	–
CC1(S(=O)(=O)c2cccc(C(F)(F)F)c2)CCOC(c2cc(OCC(F)F)n[nH]2)C1 (stereo not drawn) [Example 32 cis-EN1, 5-(2,2-Difluoro-ethoxy)-3-[4-methyl-4-[[3-(trifluoromethyl)phenyl]sulfonyl]-tetrahydro-pyran-2-yl]-1H-pyrazole]	> 95	–
CC1(S(=O)(=O)c2cccc(C(F)(F)F)c2)CCOC(c2cc(OCC(F)F)n[nH]2)C1 (stereo not drawn) [Example 32 cis-EN2, 5-(2,2-Difluoro-ethoxy)-3-[4-methyl-4-[[3-(trifluoromethyl)phenyl]sulfonyl]-tetrahydro-pyran-2-yl]-1H-pyrazole]	–	Activity Category: %-Inhib (CaV2.2) @3 μM @30 mM KCl: B (%-Inhibition >75% up to ≤95%)
COCC(C)(C)c1cc(C2CC(C)(S(=O)(=O)c3cccc(C(F)(F)F)c3)CCO2)[nH]n1 (stereo not drawn) [Example 33 cis-EN1, 3-(2-Methoxy-1,1-dimethyl-ethyl)-5-[4-methyl-4-[[3-(trifluoromethyl)phenyl]sulfonyl]-tetrahydro-pyran-2-yl]-1H-pyrazole]	> 95	–
CC(C)(CO)c1cc(C2CC(C)(S(=O)(=O)c3cccc(C(F)(F)F)c3)CCO2)[nH]n1 (stereo not drawn) [Example 34 cis-EN1, 2-Methyl-2-[5-[4-methyl-4-[[3-(trifluoromethyl)phenyl]sulfonyl]-tetrahydro-pyran-2-yl]-1H-pyrazol-3-yl]-propan-1-ol]	75 to 95	–
CC(C)CS(=O)(=O)c1cc(C2CC(C)(S(=O)(=O)c3cccc(C(F)(F)F)c3)CCO2)[nH]n1 (stereo not drawn) [Example 35 cis-EN1, 3-(2-Methyl-propylsulfonyl)-5-[4-methyl-4-[[3-(trifluoromethyl)phenyl]sulfonyl]-tetrahydro-pyran-2-yl]-1H-pyrazole]	75 to 95	–
CC(C)CS(=O)(=O)c1cc(C2CC(C)(S(=O)(=O)c3cccc(C(F)(F)F)c3)CCO2)[nH]n1 (stereo not drawn) [Example 35 cis-EN2, 3-(2-Methyl-propylsulfonyl)-5-[4-methyl-4-[[3-(trifluoromethyl)phenyl]sulfonyl]-tetrahydro-pyran-2-yl]-1H-pyrazole]	–	Activity Category: %-Inhib (CaV2.2) @3 μM @30 mM KCl: A (%-Inhibition >95%)
CC(C)(C)CS(=O)(=O)c1cc(C2CC(C)(S(=O)(=O)c3cccc(C(F)(F)F)c3)CCO2)[nH]n1 (stereo not drawn) [Example 36 cis-EN1, 3-(2,2-Dimethyl-propylsulfonyl)-5-[4-methyl-4-[[3-(trifluoromethyl)phenyl]sulfonyl]-tetrahydro-pyran-2-yl]-1H-pyrazole]	75 to 95	–
CC(C)(C)CS(=O)(=O)c1cc(C2CC(C)(S(=O)(=O)c3cccc(C(F)(F)F)c3)CCO2)[nH]n1 (stereo not drawn) [Example 36 cis-EN2, 3-(2,2-Dimethyl-propylsulfonyl)-5-[4-methyl-4-[[3-(trifluoromethyl)phenyl]sulfonyl]-tetrahydro-pyran-2-yl]-1H-pyrazole]	–	Activity Category: %-Inhib (CaV2.2) @3 μM @30 mM KCl: A (%-Inhibition >95%)
CC1(S(=O)(=O)c2cccc(C(F)(F)F)c2)CCOC(c2cc(S(C)(=O)=O)n[nH]2)C1 (stereo not drawn) [Example 37 cis-EN1, 5-Methylsulfonyl-3-[4-methyl-4-[[3-(trifluoromethyl)phenyl]sulfonyl]-tetrahydro-pyran-2-yl]-1H-pyrazole]	–	Activity Category: %-Inhib (CaV2.2) @3 μM @30 mM KCl (listed as 37 cis-EN1): C (%-Inhibition >40% up to ≤75%)
CC1(S(=O)(=O)c2cccc(C(F)(F)F)c2)CCOC(c2cc(S(C)(=O)=O)n[nH]2)C1 (stereo not drawn) [Example 37 cis-EN2, 5-Methylsulfonyl-3-[4-methyl-4-[[3-(trifluoromethyl)phenyl]sulfonyl]-tetrahydro-pyran-2-yl]-1H-pyrazole]	–	Activity Category: %-Inhib (CaV2.2) @3 μM @30 mM KCl (listed as 37 cis-EN2): B (%-Inhibition >75% up to ≤95%)
CC(C)(C#N)c1cc(C2CC(C)(S(=O)(=O)c3cccc(C(F)(F)F)n3)CCO2)[nH]n1 (stereo not drawn) [Example 38 cis-EN1, 2-Methyl-2-[5-[4-methyl-4-[[6-(trifluoromethyl)-pyridin-2-yl]sulfonyl]-tetrahydro-pyran-2-yl]-1H-pyrazol-3-yl]-propionitrile]	–	Activity Category: %-Inhib (CaV2.2) @3 μM @30 mM KCl (listed as 38 cis-EN1): C (%-Inhibition >40% up to ≤75%)
CC(C)(C#N)c1cc(C2CC(C)(S(=O)(=O)c3cccc(C(F)(F)F)n3)CCO2)[nH]n1 (stereo not drawn) [Example 38 cis-EN2, 2-Methyl-2-[5-[4-methyl-4-[[6-(trifluoromethyl)-pyridin-2-yl]sulfonyl]-tetrahydro-pyran-2-yl]-1H-pyrazol-3-yl]-propionitrile]	–	Activity Category: %-Inhib (CaV2.2) @3 μM @30 mM KCl (listed as 38 cis-EN2): B (%-Inhibition >75% up to ≤95%)
CC1(S(=O)(=O)c2cccc(C(F)(F)F)c2)CCOC(c2cc(S(=O)(=O)C(F)F)n[nH]2)C1 (stereo not drawn) [[cis-EN1] Example 1, 3-(Difluoro-methylsulfonyl)-5-[4-methyl-4-[[3-(trifluoromethyl)phenyl]sulfonyl]-tetrahydro-pyran-2-yl]-1H-pyrazole]	75 to 95	–
CC1(S(=O)(=O)c2cccc(C(F)(F)F)c2)CCOC(c2cc(C(F)F)[nH]n2)C1 (stereo not drawn) [[cis-EN1] Example 12, 5-(Difluoro-methyl)-3-[4-methyl-4-[[3-(trifluoromethyl)phenyl]sulfonyl]-tetrahydro-pyran-2-yl]-1H-pyrazole]	75 to 95	–
CC1(S(=O)(=O)c2cccc(C(F)(F)F)c2)CCOC(c2cc(C(F)F)[nH]n2)C1 (stereo not drawn) [[cis-EN2] Example 12] [5-(Difluoro-methyl)-3-[4-methyl-4-[[3-(trifluoromethyl)phenyl]sulfonyl]-tetrahydro-pyran-2-yl]-1H-pyrazole]	–	Activity Category: %-Inhib (CaV2.2) @3 μM @30 mM KCl: A (%-Inhibition >95%)
